Assay results taken from article PMC12163657 (ACS Omega, 2025).
Where a chain is given by its changes, count along the chain named. pIC50: −log10 of the molar value.

Experiments:
[1] = biological target: T1, ERα (Homo sapiens, UniProt P03372); test: Alkaline phosphatase; assay type: cell-based
T1 sequence (P03372 1-595): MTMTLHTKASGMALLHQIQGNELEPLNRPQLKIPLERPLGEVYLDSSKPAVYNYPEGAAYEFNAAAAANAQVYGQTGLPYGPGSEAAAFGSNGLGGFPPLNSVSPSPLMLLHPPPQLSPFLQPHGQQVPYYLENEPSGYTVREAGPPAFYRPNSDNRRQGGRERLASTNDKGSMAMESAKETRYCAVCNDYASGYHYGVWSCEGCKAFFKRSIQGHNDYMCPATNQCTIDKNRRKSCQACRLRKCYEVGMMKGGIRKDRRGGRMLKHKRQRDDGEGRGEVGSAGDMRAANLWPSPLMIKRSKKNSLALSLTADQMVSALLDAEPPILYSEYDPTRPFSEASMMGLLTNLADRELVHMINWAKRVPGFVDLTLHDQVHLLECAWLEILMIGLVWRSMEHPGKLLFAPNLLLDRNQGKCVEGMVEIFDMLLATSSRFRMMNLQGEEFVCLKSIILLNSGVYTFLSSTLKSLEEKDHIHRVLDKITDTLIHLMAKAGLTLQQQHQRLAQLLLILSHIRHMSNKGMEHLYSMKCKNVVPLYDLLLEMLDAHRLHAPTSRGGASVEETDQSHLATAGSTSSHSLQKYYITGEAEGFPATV

[2] = biological target: T2, PR (Homo sapiens, UniProt P06401); test: Reporter assay of gene transcription activity, PR; assay type: cell-based
T2 sequence (P06401 1-933): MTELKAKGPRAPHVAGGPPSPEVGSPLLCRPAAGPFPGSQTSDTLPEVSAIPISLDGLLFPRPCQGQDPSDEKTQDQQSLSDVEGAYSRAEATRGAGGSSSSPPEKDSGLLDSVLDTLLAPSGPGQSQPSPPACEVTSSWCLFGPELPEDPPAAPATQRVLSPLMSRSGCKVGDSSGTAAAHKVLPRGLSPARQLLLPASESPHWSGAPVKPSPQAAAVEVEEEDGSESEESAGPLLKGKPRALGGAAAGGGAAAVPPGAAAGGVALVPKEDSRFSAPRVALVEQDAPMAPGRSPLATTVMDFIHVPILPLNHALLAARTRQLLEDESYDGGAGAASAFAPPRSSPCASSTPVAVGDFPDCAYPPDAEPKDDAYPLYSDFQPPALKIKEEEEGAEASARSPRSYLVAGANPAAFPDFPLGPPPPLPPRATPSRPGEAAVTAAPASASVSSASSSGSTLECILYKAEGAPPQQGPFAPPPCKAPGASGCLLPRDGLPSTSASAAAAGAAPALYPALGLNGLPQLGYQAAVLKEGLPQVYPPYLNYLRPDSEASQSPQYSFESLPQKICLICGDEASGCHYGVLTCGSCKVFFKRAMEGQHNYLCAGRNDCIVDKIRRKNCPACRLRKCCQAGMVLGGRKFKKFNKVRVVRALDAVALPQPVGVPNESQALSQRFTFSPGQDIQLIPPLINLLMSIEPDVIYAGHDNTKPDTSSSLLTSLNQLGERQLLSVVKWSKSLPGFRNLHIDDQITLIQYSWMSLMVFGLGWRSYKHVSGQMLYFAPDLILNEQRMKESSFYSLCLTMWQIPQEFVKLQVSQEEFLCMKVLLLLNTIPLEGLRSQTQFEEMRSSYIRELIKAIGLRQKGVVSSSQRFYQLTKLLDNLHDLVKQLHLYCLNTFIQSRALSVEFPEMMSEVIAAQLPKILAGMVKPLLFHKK

[3] = test system: CAMA-1 ESR1 Asp538Gly cells; test: CAMA-1 cell proliferation, ESR1 Asp538Gly; assay type: cell-based; conditions: Homo sapiens, CAMA-1, read-out: CAMA-1 cell prolif. pIC50 (converted)
[4] = Plasma protein binding, rapid equilibrium dialysis, rat plasma; assay type: in vitro ADME
[5] = In vivo mouse oral single dose PK
[6] = biological target: ERβ (Homo sapiens, UniProt Q92731); test: Reporter assay of gene transcription activity, ERβ; assay type: cell-based
[7] = Single-dose pharmacokinetics, monkey; assay type: in vivo; conditions: serum
[8] = biological target: T3, ESR1 Asp538Gly (Homo sapiens, UniProt P03372, D538G); test: AP; assay type: cell-based
T3 sequence (P03372 1-595 D538G): T1 sequence (P03372 1-595) with D538G

[9] = biological target: T4, ESR1 WT (Homo sapiens, UniProt P03372); test: AP; assay type: cell-based
T4 sequence (P03372 1-595): T1 sequence (P03372 1-595)

[10] = test system: CAMA-1 ESR1 Tyr537Ser cells; test: CAMA-1 cell proliferation, ESR1 Tyr537Ser; assay type: cell-based; conditions: Homo sapiens, CAMA-1, read-out: CAMA-1 cell prolif. pIC50 (converted)
[11] = test system: ST941/C cells; test: ST941/C cell proliferation; assay type: cell-based; conditions: read-out: ST941/C cell prolif. pIC50 (converted)
[12] = Plasma protein binding, rapid equilibrium dialysis, cyno plasma; assay type: in vitro ADME, cynomolgus monkey

ERβ, sequence (Q92731 whole entry, species assumed): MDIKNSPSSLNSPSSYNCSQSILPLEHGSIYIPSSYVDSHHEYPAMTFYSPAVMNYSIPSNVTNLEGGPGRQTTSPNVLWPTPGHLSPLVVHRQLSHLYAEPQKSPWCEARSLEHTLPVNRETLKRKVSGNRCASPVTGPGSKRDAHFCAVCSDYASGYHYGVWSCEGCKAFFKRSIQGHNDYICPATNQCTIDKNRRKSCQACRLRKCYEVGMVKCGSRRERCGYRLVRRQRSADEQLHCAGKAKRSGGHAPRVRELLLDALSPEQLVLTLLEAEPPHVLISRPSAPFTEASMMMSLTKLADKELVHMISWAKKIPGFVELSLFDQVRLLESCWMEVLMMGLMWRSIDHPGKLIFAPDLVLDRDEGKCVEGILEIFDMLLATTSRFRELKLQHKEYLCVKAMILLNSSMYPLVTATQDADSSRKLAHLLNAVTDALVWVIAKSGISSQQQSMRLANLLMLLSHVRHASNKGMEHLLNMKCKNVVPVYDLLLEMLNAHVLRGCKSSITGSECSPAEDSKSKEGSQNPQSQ

pIC50 [1]: 8.50
pIC50 [2]: < 5.50
agonist cross-reactivity on PR ([2]; in words): no agonist cross-reactivity
PR pIC50, antag. mode ([2]; reporter assay, antag. mode): <5.5
Plasma free drug percentage [4]: 0.24%
total AUCinf ([5]; oral single dose): 2477 ng·h/mL
free AUCinf ([5]; oral single dose, estimated based on the percent free fraction): 1.5 ng·h/mL
Cmax ([5]; plasma, po): 121 ng/mL
half-life ([5]; plasma, po): 18 h
pIC50 ([6]; Erβ pIC50, agonist mode, agonist mode): < 5.50
pIC50 ([6]; Erβ pIC50, antag. mode, antag. mode): 8.50
AUC ([7]; iv, 3 mg/kg): 3420 ng·h/mL
Cmax ([7]; iv, 3 mg/kg): 651 ng/mL
Vd ([7]; iv, 3 mg/kg): 49 L/kg
clearance ([7]; iv, 3 mg/kg): 13.3 mL/min/kg
half-life ([7]; iv, 3 mg/kg): 42 h
AUC ([7]; po, 10 mg/kg): 5090 ng·h/mL
Cmax ([7]; po, 10 mg/kg): 170 ng/mL
Tmax ([7]; po, 10 mg/kg): 8 h
bioavailability ([7]; po, 10 mg/kg): 44.4%
half-life ([7]; po, 10 mg/kg): 34 h
pIC50 [8]: 7.50
pIC50 [9]: 8.60
Plasma free drug percentage [12]: 0.13%
SMILES: CCCN1CC(Oc2ccc([C@@H]3c4[nH]c5ccccc5c4C[C@@H](C)N3CC(C)(C)F)cc2)C1 [compound 21, (1R,3R)-2-(2-Fluoro-2-methylpropyl)-3-methyl-1-(4-((1-propylazetidin-3-yl)oxy)phenyl)-2,3,4,9-tetrahydro-1H-pyrido[3,4-b]indole]
IC50 [3]: 6.31 nM
IC50 [10]: 12.6 nM
IC50 [11]: 31.6 nM
